Data published in patent US8614252B2, “Crystalline solid rasagiline base” (Teva Pharmaceutical Industries Ltd., priority 2006, dated 2013).
In brackets after ≈: the same amount, converted by molar mass.

What was measured:
[1] = alcohols, acetone, ethyl acetate, toluene, diethyl ether, dioxane, hexane and n-heptane
[2] = low levels of volatiles by KF and TGA
[3] = pH 11

- solubility in organic solvents [1]: freely soluble
- hygroscopicity [2]: not hygroscopic
- solubility in water [3]: 5500 µg/mL (≈ 32.1 mM)
Structure (SMILES): C#CCN[C@@H]1CCc2ccccc21 [rasagiline base, R(+)-N-propargyl-1-aminoindan]
